Experimental data reported in patent US5744449A (priority 1996, dated 1998).
Ends that are not written are not given here.

What was measured:
[1] = test system: Sea snake venom; details: in vivo
[2] = test system: N. n. kaouthia venom; details: in vivo
[3] = test system: venoms and their lethal toxins; design: species or system mice; details: mouse
[4] = test system: V. russellii venom; details: in vivo
[5] = test system: O. s. scutellatus venom; details: in vivo
[6] = test system: C. atrox venom; details: in vivo

LKAMDPTPPLWIKTE [LTNF-15]
neutralized in vivo: neutralization of venoms and their lethal toxins in vivo [3]
0/3: Death/Survival Group II (LTNF Immediately) [1] | Death/Survival Group III (LTNF 1/2 hr before) [1] | Death/Survival Group II (LTNF Immediately) [2] | Death/Survival Group III (LTNF 1/2 hr before) [2] | Death/Survival Group II (LTNF Immediately) [4] | Death/Survival Group III (LTNF 1/2 hr before) [4] | Death/Survival Group II (LTNF Immediately) [5] | Death/Survival Group III (LTNF 1/2 hr before) [5] | Death/Survival Group II (LTNF Immediately) [6] | Death/Survival Group III (LTNF 1/2 hr before) [6]
